# Data from patent publication US11883491B2, “Compositions and methods for prevention and treatment of hearing loss” (ST. JUDE CHILDREN'S RESEARCH HOSPITAL, priority 2017, dated 2024).
# What was measured:
# HEI-OC1 cells [1] = experiment: Protection against cisplatin-induced Caspase-3/7 activity / cell death in HEI-OC1 cells; format: cell-based, mouse; conditions: for protection against cisplatin-induced cell death: HEI-OC1, screen of 75 kinase inhibitors; for IC50: Mus musculus, HEI-OC1 cells
# Method: (§2) A screen of a library composed of 75 kinase inhibitors was conducted to identify inhibitors that protect against cisplatin-induced hair cell loss.
# mouse cochlear explants [2] = conditions: for protection against cisplatin-induced hair cell loss: cochlear explants, screen of 75 kinase inhibitors
# Method: as §2
# HEI-OC1 cells [3] = conditions: CELLTITER-GLO
# Method: as §2
# mouse cochlear explants [4] = experiment: tissue or blood; conditions: read-out: IC50, protection against cisplatin-induced hair cell loss
# Method: as §2
# [5] = tested on: neonatal mouse cochlear explants; experiment: Atoh1-induced hair cell conversion in Atoh1-transfected neonatal mouse cochlear explants; format: cell-based
# Method: Representative images show the immunostaining of cochlear explants transfected with Atoh1-IRES-GFP and treated with vehicle (FIGS. 1A and 1C) or 100 nM AG1478 (FIGS. 1B and 1D). Expression of hair cell marker Myo6 (↑) and Atoh1-transfected cells (GFP, ? ) are shown.
# Atoh1 is transfected (O/E) in all conditions.
# [6] = tested on: neonatal mouse cochlear explants; experiment: Inhibitor alone: proliferation and differentiation of endogenous SCs and HCs in neonatal cochlear explants; format: cell-based; conditions: inhibitor by itself, after 7 days
# From the text: Atoh1, a transcription factor, can convert non-sensory supporting cells (SCs) to hair cells (HCs) in neonatal and juvenile mammalian cochleae (Izumikawa, et al. (2005) Nature Med. 11:271-6; Kelly, et al. (2012) J. Neurosci. 32:6699-710; Liu, et al. (2012) J. Neurosci. 32:6600-10). Ectopic expression of Atoh1 has been approved for clinical trials as a gene therapy. However, Atoh1-induced HC conversion is inefficient (<17%), incomplete (lacking mature HC markers), and age-dependent (no response in adult cochlea) (Izumikawa, et al. (2008) Hearing Res. 240:52-6; Liu, et al. (2012) J. Neurosci. 32:6600-10). Using RNA-seq analysis to compare the transcriptome of SCs, endogenous outer HCs (OHCS), and Atoh1-induced HCs (cHCs) in adult mouse cochleae, it was observed that the epidermal growth factor receptor (EGFR) signaling is enriched in SCs and cHCs using gene set enrichment analysis (GSEA). To validate the role of EGFR pathway ex vivo, neonatal mouse cochlear explants were treated with a potent EGFR inhibitor (AG1478). […] In addition, inhibitors targeting proteins downstream of EGFR signaling were tested including WP1066 (STAT3 inhibitor), LY 294002 (PI3K inhibitor), U0126 (MEK inhibitor), and U73122 (PLC inhibitor) at various doses above their respective EC50 values. […]
# FVB mice [7] = experiment: Toxicity (median lethal dose) in neonatal mice; format: in vivo, mouse; conditions: postnatal day 1 (P1) FVB mice, intraperitoneal (IP) injection; estimated
# Method: (§1) To further evaluate the use of an inhibitor of EGFR signaling in HC regeneration, the toxicity of AG1478 in neonatal and adult mice was assessed.
# FVB mice [8] = experiment: Auditory brainstem response thresholds after transtympanic injection in adult mice; format: in vivo, mouse; conditions: adult (>P21) FVB mice, 10 μg transtympanic (TT) injection, 7 days after
# Method: as §1
smiles,measurement,setting,value
"CC(C)(C)c1nc(-c2cccc(NS(=O)(=O)c3c(F)cccc3F)c2F)c(-c2ccnc(N)n2)s1 [GSK2118436A, dabrafenib]",protection against cisplatin-induced cell death,HEI-OC1 cells [1],potently protected
same,protection against cisplatin-induced hair cell loss,mouse cochlear explants [2],potently protected
"CC1(COc2ccc3c(c2)ncn3-c2ccc3cccc(N4CCC(N)CC4)c3n2)COC1 [CRENOLANIB, Crenolanib]",protection against cisplatin-induced cell death,HEI-OC1 cells [1],potently protected
same,protection against cisplatin-induced hair cell loss,mouse cochlear explants [2],potently protected
"FC(F)(F)c1ccc(/C=C/c2nc(COc3ccc(CCCCn4ccnn4)cc3)co2)cc1 [MUBRITINIB, Mubritinib]",protection against cisplatin-induced cell death,HEI-OC1 cells [1],potently protected
same,IC50,HEI-OC1 cells [1],4 nM
same,LD50,HEI-OC1 cells [3],> 55 µM
same,protection against cisplatin-induced hair cell loss,mouse cochlear explants [2],potently protected
same,LD50,mouse cochlear explants [2]; mouse cochlear explants,> 500 nM
same,Therapeutic Index,"mouse cochlear explants [2]; mouse cochlear explants, LD50/IC50",> 200
same,IC50,mouse cochlear explants [4],2.5 nM
"COc1cc2ncnc(Nc3cccc(Cl)c3)c2cc1OC [AG1478, AG 1478]",Atoh1-induced hair cell conversion (immunostaining Myo6/GFP),"[5]; 100 nM AG1478 vs vehicle, Atoh1-IRES-GFP transfected explants",increased
same,Atoh1-induced HC conversion from explant SCs,"[5]; AG1478 combined with Atoh1, from 24.7% without inhibitor, FIGS. 1A-1D",80.6%
same,impact on the proliferation and differentiation of endogenous SCs and HCs,[6],no impact
same,median lethal dose (LD50),FVB mice [7],30 mg/kg
same,changes in auditory brainstem response (ABR) thresholds,FVB mice [8],no significant changes
"CCOc1cc2ncc(C#N)c(Nc3ccc(F)c(Cl)c3)c2cc1NC(=O)/C=C/CN(C)C [PELITINIB, Pelitinib]",IC50,HEI-OC1 cells [1]; cisplatin-Glo 3/7,600 nM
same,protection of outer hair cells against cisplatin-induced hair cell loss,"mouse cochlear explants [2]; 1 hour pre-incubation, N=3",49%
O=C(Nc1cccc(Cl)c1)Nc1ncc(CCNc2ncnc3ccsc23)s1 [SNS314],protection against cisplatin-induced cell death,HEI-OC1 cells [1],potently protected
same,protection against cisplatin-induced hair cell loss,mouse cochlear explants [2],potently protected
